PubChem BioAssay (NCI)
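1) Cells in 96-well plates. 2) Compound, 48 h, 5 concentrations. 3) Linear interpolation between surrounding doses. 4) Unreached endpoint = highest concentration. The concentration for 50% growth inhibition is given as GI50. TGI denotes the concentration required for complete inhibition of growth.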

How the values were obtained:
Assay in all cases: DTP human tumour cell line panel, 48 h
SNB-75 CNS = test system: SNB-75 CNS
MDA-MB-435 = test system: MDA-MB-435
HS 578T breast = test system: HS 578T breast
EKVX NSCLC = test system: EKVX NSCLC
SK-MEL-5 melanoma = test system: SK-MEL-5 melanoma
SK-MEL-28 melanoma = test system: SK-MEL-28 melanoma
MOLT-4 leukemia = test system: MOLT-4 leukemia
UO-31 renal = test system: UO-31 renal
NCI/ADR-RES ovarian = test system: NCI/ADR-RES ovarian
SF-268 CNS = test system: SF-268 CNS
M14 melanoma = test system: M14 melanoma
NCI-H23 lung = test system: NCI-H23 lung
HCC-2998 colon = test system: HCC-2998 colon
U251 CNS = test system: U251 CNS
IGROV1 ovarian = test system: IGROV1 ovarian
OVCAR-8 ovarian = test system: OVCAR-8 ovarian
NCI-H226 lung = test system: NCI-H226 lung
BT-549 breast = test system: BT-549 breast
OVCAR-5 ovarian = test system: OVCAR-5 ovarian
SF-539 CNS = test system: SF-539 CNS
UACC-62 melanoma = test system: UACC-62 melanoma
HCT-15 colon = test system: HCT-15 colon
HT29 colon = test system: HT29 colon
COLO 205 colon = test system: COLO 205 colon
HOP-92 NSCLC = test system: HOP-92 NSCLC
T-47D breast = test system: T-47D breast
OVCAR-4 ovarian = test system: OVCAR-4 ovarian
OVCAR-3 ovarian = test system: OVCAR-3 ovarian
786-0 renal = test system: 786-0 renal
NCI-H522 lung = test system: NCI-H522 lung
CAKI-1 renal = test system: CAKI-1 renal
SN12C renal = test system: SN12C renal
MCF7 breast = test system: MCF7 breast
K-562 leukemia = test system: K-562 leukemia
TK-10 renal = test system: TK-10 renal
LOX IMVI melanoma = test system: LOX IMVI melanoma
SNB-19 CNS = test system: SNB-19 CNS
SF-295 CNS = test system: SF-295 CNS
RXF 393 renal = test system: RXF 393 renal
KM12 colon = test system: KM12 colon
UACC-257 melanoma = test system: UACC-257 melanoma
HCT-116 colon = test system: HCT-116 colon
SK-OV-3 ovarian = test system: SK-OV-3 ovarian
ACHN renal = test system: ACHN renal
A549 NSCLC = test system: A549 NSCLC
NCI-H460 lung = test system: NCI-H460 lung
HOP-62 NSCLC = test system: HOP-62 NSCLC
SK-MEL-2 melanoma = test system: SK-MEL-2 melanoma
SW-620 colon = test system: SW-620 colon
PC-3 prostate = test system: PC-3 prostate
MALME-3M melanoma = test system: MALME-3M melanoma
MDA-MB-231 breast = test system: MDA-MB-231 breast
DU-145 prostate = test system: DU-145 prostate

Cc1ccc(S(=O)(=O)NC(CCCCN)C(=O)CCl)cc1 (stereo unspecified)
GI50 (SNB-75 CNS): > 100 µM | TGI (SNB-75 CNS): > 100 µM | GI50 (MDA-MB-435): 22.2 µM | TGI (MDA-MB-435): 67.9 µM | GI50 (HS 578T breast): 40.9 µM | TGI (HS 578T breast): > 100 µM | GI50 (EKVX NSCLC): 27.3 µM | TGI (EKVX NSCLC): 93.4 µM | GI50 (SK-MEL-5 melanoma): 47.8 µM | TGI (SK-MEL-5 melanoma): > 100 µM | GI50 (SK-MEL-28 melanoma): > 100 µM | TGI (SK-MEL-28 melanoma): > 100 µM | GI50 (MOLT-4 leukemia): 86.6 µM | TGI (MOLT-4 leukemia): > 100 µM | GI50 (UO-31 renal): > 100 µM | TGI (UO-31 renal): > 100 µM | GI50 (NCI/ADR-RES ovarian): 81.3 µM | TGI (NCI/ADR-RES ovarian): > 100 µM | GI50 (SF-268 CNS): 67.5 µM | TGI (SF-268 CNS): > 100 µM | GI50 (M14 melanoma): > 100 µM | TGI (M14 melanoma): > 100 µM | GI50 (NCI-H23 lung): > 100 µM | TGI (NCI-H23 lung): > 100 µM | GI50 (HCC-2998 colon): 37.4 µM | TGI (HCC-2998 colon): > 100 µM | GI50 (U251 CNS): 29 µM | TGI (U251 CNS): > 100 µM | GI50 (IGROV1 ovarian): > 100 µM | TGI (IGROV1 ovarian): > 100 µM | GI50 (OVCAR-8 ovarian): > 100 µM | TGI (OVCAR-8 ovarian): > 100 µM | GI50 (NCI-H226 lung): 79.9 µM | TGI (NCI-H226 lung): > 100 µM | GI50 (BT-549 breast): 27.6 µM | TGI (BT-549 breast): 89.6 µM | GI50 (OVCAR-5 ovarian): > 100 µM | TGI (OVCAR-5 ovarian): > 100 µM | GI50 (SF-539 CNS): 22.3 µM | TGI (SF-539 CNS): 53.6 µM | GI50 (UACC-62 melanoma): 58.3 µM | TGI (UACC-62 melanoma): > 100 µM | GI50 (HCT-15 colon): 72.4 µM | TGI (HCT-15 colon): > 100 µM | GI50 (HT29 colon): > 100 µM | TGI (HT29 colon): > 100 µM | GI50 (COLO 205 colon): 41.1 µM | TGI (COLO 205 colon): > 100 µM | GI50 (HOP-92 NSCLC): 20.2 µM | TGI (HOP-92 NSCLC): 67.1 µM | GI50 (T-47D breast): > 100 µM | TGI (T-47D breast): > 100 µM | GI50 (OVCAR-4 ovarian): > 100 µM | TGI (OVCAR-4 ovarian): > 100 µM | GI50 (OVCAR-3 ovarian): 33.2 µM | TGI (OVCAR-3 ovarian): > 100 µM | GI50 (786-0 renal): 73.2 µM | TGI (786-0 renal): > 100 µM | GI50 (NCI-H522 lung): 31 µM | TGI (NCI-H522 lung): > 100 µM | GI50 (CAKI-1 renal): 37.8 µM | TGI (CAKI-1 renal): > 100 µM | GI50 (SN12C renal): 35.6 µM | TGI (SN12C renal): 77.2 µM | GI50 (MCF7 breast): 57.9 µM | TGI (MCF7 breast): > 100 µM | GI50 (K-562 leukemia): 38.7 µM | TGI (K-562 leukemia): > 100 µM | GI50 (TK-10 renal): 90.5 µM | TGI (TK-10 renal): > 100 µM | GI50 (LOX IMVI melanoma): 45.4 µM | TGI (LOX IMVI melanoma): > 100 µM | GI50 (SNB-19 CNS): 47.8 µM | TGI (SNB-19 CNS): > 100 µM | GI50 (SF-295 CNS): 27.2 µM | TGI (SF-295 CNS): 77 µM | GI50 (RXF 393 renal): 54.2 µM | TGI (RXF 393 renal): > 100 µM | GI50 (KM12 colon): 55.9 µM | TGI (KM12 colon): > 100 µM | GI50 (UACC-257 melanoma): > 100 µM | TGI (UACC-257 melanoma): > 100 µM | GI50 (HCT-116 colon): 90.7 µM | TGI (HCT-116 colon): > 100 µM | GI50 (SK-OV-3 ovarian): > 100 µM | TGI (SK-OV-3 ovarian): > 100 µM | GI50 (ACHN renal): 92.7 µM | TGI (ACHN renal): > 100 µM | GI50 (A549 NSCLC): > 100 µM | TGI (A549 NSCLC): > 100 µM | GI50 (NCI-H460 lung): > 100 µM | TGI (NCI-H460 lung): > 100 µM | GI50 (HOP-62 NSCLC): 63.5 µM | TGI (HOP-62 NSCLC): > 100 µM | GI50 (SK-MEL-2 melanoma): 67.5 µM | TGI (SK-MEL-2 melanoma): > 100 µM | GI50 (SW-620 colon): 43.1 µM | TGI (SW-620 colon): > 100 µM | GI50 (PC-3 prostate): 52.6 µM | TGI (PC-3 prostate): > 100 µM | GI50 (MALME-3M melanoma): 68.7 µM | TGI (MALME-3M melanoma): > 100 µM | GI50 (MDA-MB-231 breast): > 100 µM | TGI (MDA-MB-231 breast): > 100 µM | GI50 (DU-145 prostate): 81.2 µM | TGI (DU-145 prostate): > 100 µM
